For the assay, the target named is KDR kinase (VEGF receptor) (Homo sapiens, UniProt P35968). Put plainly: KDR kinase activity assay (FlashPlate, 33P-ATP phosphorylation of peptide substrate PLCγ1). It is filed as biochemical. To be noted: purified enzyme, 5 μM cold ATP, pH 7.4, RT 1 h. On the procedure:
The tyrosine kinase receptor KDR is the test target. KDR plays a key role in the growth of endothelium and in angiogenesis and is consequently also involved in the development of tumors. KDR is consequently an important therapeutic target molecule for cancer diseases and other proliferative diseases. In the test, the activity of the KDR kinase is measured on the basis of the phosphorylation of a specific peptide substrate.
The KDR kinase was determined using purified enzyme in 384-well microtiter plates (Coated FlashPlates, NEN Life Science). The enzyme activities were determined by means of phosphorylating a specific peptide substrate. A previously prepared series of dilutions of the eurotinones having concentrations of 100, 50, 25, 12.5, 6.25, 3.125, 1.5625, 0.7813, 0.3906, 0.195, 0.094, 0.047 and 0 μM were pipetted, in the corresponding order, into the experimental assays. The reaction mixture (radioactively labeled ATP, buffer solution at pH 7.4 and enzyme solutions) was then added and the whole was incubated at RT for 1 h.
Enzyme: KDR kinase (VEGF receptor)
50 mM MOPS, pH7.4, 10 mM MgCl2, 2 mM DTT, 2.5 mM EDTA,
ATP solution: 25μCi of ^33P-γ-ATP/ml and 12.5 μM cold ATP
KDR enzyme solution: 3.5 μg/ml in kinase buffer
384-well FlashPlates were coated, at […] and overnight, with 60 μl (1.2 μg/well) of the peptide substrate and then washed 3×with in each case 80 μl of PBS. The plates which had been coated in this way can be stored for a relatively short time at 4° C. and for a longer period at −20° C. […]
The plates were subsequently washed three times with 75 μl of washing solution in each case and the radioactivity is measured over 30 seconds in a MicroBeta counter (Wallac). […]
The activity of the KDR kinase was measured by way of the incorporation of radioactive phosphate from ATP into the substrate, and the inhibitory effect of the eurotinone (IC50) was calculated from this incorporation.
The inhibition was calculated as: […]

Structures are written as SMILES.

KDR kinase (VEGF receptor), sequence (P35968 20-1356): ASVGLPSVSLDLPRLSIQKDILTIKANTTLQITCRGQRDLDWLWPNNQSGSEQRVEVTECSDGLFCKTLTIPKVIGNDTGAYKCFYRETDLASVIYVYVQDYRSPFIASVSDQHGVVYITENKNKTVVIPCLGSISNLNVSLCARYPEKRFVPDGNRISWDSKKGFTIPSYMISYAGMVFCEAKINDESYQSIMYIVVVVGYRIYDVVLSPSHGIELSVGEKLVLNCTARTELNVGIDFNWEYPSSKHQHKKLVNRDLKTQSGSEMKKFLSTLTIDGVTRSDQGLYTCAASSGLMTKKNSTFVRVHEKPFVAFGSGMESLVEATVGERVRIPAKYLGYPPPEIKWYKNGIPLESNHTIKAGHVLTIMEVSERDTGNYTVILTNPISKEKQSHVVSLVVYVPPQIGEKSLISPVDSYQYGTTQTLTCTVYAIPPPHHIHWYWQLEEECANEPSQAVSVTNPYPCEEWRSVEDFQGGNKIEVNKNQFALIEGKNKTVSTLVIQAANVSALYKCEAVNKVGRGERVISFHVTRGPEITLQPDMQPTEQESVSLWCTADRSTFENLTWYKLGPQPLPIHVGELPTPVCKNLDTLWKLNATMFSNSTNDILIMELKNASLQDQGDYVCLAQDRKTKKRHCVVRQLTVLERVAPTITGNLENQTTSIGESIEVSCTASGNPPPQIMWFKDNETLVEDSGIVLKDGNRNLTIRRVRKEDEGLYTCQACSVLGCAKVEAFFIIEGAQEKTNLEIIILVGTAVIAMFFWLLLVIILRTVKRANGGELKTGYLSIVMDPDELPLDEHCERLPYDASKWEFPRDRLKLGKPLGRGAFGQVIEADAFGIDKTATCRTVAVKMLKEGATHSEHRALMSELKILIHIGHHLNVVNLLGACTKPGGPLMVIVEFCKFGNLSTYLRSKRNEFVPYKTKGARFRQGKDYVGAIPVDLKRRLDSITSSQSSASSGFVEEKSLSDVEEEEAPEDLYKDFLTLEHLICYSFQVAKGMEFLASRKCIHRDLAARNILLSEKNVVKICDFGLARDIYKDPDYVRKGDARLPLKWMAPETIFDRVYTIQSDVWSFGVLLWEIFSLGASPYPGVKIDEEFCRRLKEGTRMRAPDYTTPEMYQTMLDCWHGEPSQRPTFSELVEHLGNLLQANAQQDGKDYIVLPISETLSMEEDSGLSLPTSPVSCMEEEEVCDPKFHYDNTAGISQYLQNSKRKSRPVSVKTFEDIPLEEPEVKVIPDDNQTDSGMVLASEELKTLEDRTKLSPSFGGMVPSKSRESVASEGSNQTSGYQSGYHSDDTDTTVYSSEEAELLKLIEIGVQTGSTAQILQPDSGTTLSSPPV

As usually defined, the IC50 is the concentration at which inhibition is half-maximal. Read a low IC50 as inhibition by little substance. As to `COc1cc(O)cc2c1OC(=O)c1c(OC)cc(C)c(O)c1C2` [2,12-dimethyleurotinone (compound 2), 2,12-dimethyleurotinone], 155 µM corresponded to half-maximal inhibition (IC50).
As for `COc1cc(O)cc2c1OC(=O)c1c(O)cc(C)c(O)c1C2` [2-methyleurotinone (compound 3), 2-methyleurotinone], the figure is 18 µM; as for `Cc1cc(O)c2c(c1O)Cc1cc(O)cc(O)c1OC2=O` [eurotinone (compound 1), eurotinone], 22 µM.
